Test results as given in patent US5567694A, “17-Aryl and 17-heterocyclyl-5β,14β-androstane derivatives active on the cardiovascular system, processes for their preparation and pharmaceutical compositions containing same” (SIGMA-TAU Industrie Farmaceutiche Riunite S.p.A., priority 1992, dated 1996).

What was measured:
Na^+,K^+ -ATPase [1] = assay type: binding; settings: ^3 H-ouabain displacement, purified Na^+,K^+ -ATPase receptor
Source text: (§1) To test the affinity for the receptor site of the Na^+,K^+ -ATPase and the inhibitory activity on the enzyme, the following tests were used:
a) displacement of the specific ^3 H-ouabain binding from the Na^+,K^+ -ATPase receptor purified according to Jorghensen (Jorghensen P., BBA, 1974, 356, 36) and Erdmann ( Erdmann E. et al., Arzneim. Forsh., 1984, 34, 13 14);

Na^+,K^+ -ATPase [2] = assay type: biochemical; set-up: unit not given here; settings: hydrolysis of ^32 P-ATP, purified Na^+,K^+ -ATPase
Source text: as §1
b) inhibition of the activity of the purified Na^+,K^+ -ATPase measured as % of hydrolysis of ^32 P-ATP in presence and in absence of the tested compound (Doucet A. et al., Am.

[3] = tested on: spontaneous hypertensive rats of the Milan (MHS); test: systolic blood pressure and heart rate in spontaneous hypertensive rats (MHS), indirect tail-cuff; assay type: in vivo, rat; settings: for SBP (systolic blood pressure) / HR (heart rate): MHS rats, n = 7, 20 mg/Kg/os daily for ten days in METHOCEL 0.5% w/v; for SBP (systolic blood pressure): controls 172 +/- 2.0; for HR (heart rate): controls 328 +/- 8.6
Method: The ability of these compounds to lower blood pressure was tested by using animal models with genetic arterial hypertension, in particular, spontaneous hypertensive rats of the Milan (MHS) (Bianchi G., Ferrari P., Barber B., The Milan Hypertensive strain. In Handbook of hypertension. Vol.4: Experimental and genetic models of hypertension. Ed. W. de jong-Elsevier Science Publishers B.V.,1984: 328-349).
The procedure adopted to test the antihypertensive activity of the compounds on the above mentioned model was the following:
systolic blood pressure (SBP) and heart rate (HR) were measured by an indirect tail-cuff method in three-month old hypertensive rats (MHS) before beginning the treatment (basal values). The rats were then subdivided in two groups of at least 7 animals each, one receiving the compound the other, the control group, receiving only the vehicle. The compound, suspended in METHOCEL 0.5% (w/v), was administered daily by mouth, for ten days. SBP and HR were measured daily 6 and 24 hours after the treatment. At the end of the ten day treatment period, a washout period of at least two days was carried out, in order to check for how long the SBP was mantained low or the basal values were re-established.

C[C@]12CCC(=NNC(=N)N)C[C@H]1CC[C@@H]1[C@@H]2CC[C@]2(C)[C@@](O)(c3ccccc3)CC[C@]12O [Comp. I-ar, 3-Guanidinoimino-17β-phenyl-5β-androstane-14β,17α-diol]
Binding ^3 H-Ouab. Displacement log IC50 (Na^+,K^+ -ATPase [1]): 5.8
Inhibitory Activity log IC50 (Na^+,K^+ -ATPase [2]): 4.6

C[C@]12CC[C@H](SCCCN)C[C@H]1CC[C@@H]1[C@@H]2CC[C@]2(C)[C@@](O)(c3ccccc3)CC[C@]12O [Comp. I-bj]
Binding ^3 H-Ouab. Displacement log IC50 (Na^+,K^+ -ATPase [1]): 5.7
Inhibitory Activity log IC50 (Na^+,K^+ -ATPase [2]): 4.6

C[C@]12CC[C@H](OCCCN)C[C@H]1CC[C@@H]1[C@@H]2CC[C@]2(C)[C@@](O)(c3ccccc3)CC[C@]12O [Comp. I-ag, 3β-(3-Aminopropoxy)-17β-phenyl-5β-androstane-14β,17α-diol]
Binding ^3 H-Ouab. Displacement log IC50 (Na^+,K^+ -ATPase [1]): 5.9
Inhibitory Activity log IC50 (Na^+,K^+ -ATPase [2]): 4.6
SBP (systolic blood pressure) [3]: 157 +/- 4.2 mm Hg
HR (heart rate) [3]: 330 +/- 9.8 beats/min.

CNCCO[C@H]1CC[C@@]2(C)[C@H](CC[C@@H]3[C@@H]2CC[C@]2(C)[C@@](O)(c4ccccc4)CC[C@]32O)C1 [Comp. I-am, 3β-(2-Methylaminoethoxy)-17β-phenyl-5β-androstane-14β,17α-diol]
Binding ^3 H-Ouab. Displacement log IC50 (Na^+,K^+ -ATPase [1]): 5.9
Inhibitory Activity log IC50 (Na^+,K^+ -ATPase [2]): 4.8

CCN(CC)CCO[C@H]1CC[C@@]2(C)[C@H](CC[C@@H]3[C@@H]2CC[C@]2(C)[C@@](O)(c4ccc(OC)cc4)CC[C@]32O)C1 [Comp. I-av, 3β-(2-Diethylaminoethory)-17β-(4-methoxyphenyl)-5β-androstane-14β,17α-diol]
Binding ^3 H-Ouab. Displacement log IC50 (Na^+,K^+ -ATPase [1]): 6.0
Inhibitory Activity log IC50 (Na^+,K^+ -ATPase [2]): 4.8

C[C@]12CC[C@H](O)C[C@H]1CC[C@@H]1[C@@H]2CC[C@]2(C)[C@@](O)(C3=CC(=O)OC3)CC[C@]12O [Ref. comp., 3β,14β,17α-trihydroxy-5β-card-20(22)-enolide, reference compound]
Binding ^3 H-Ouab. Displacement log IC50 (Na^+,K^+ -ATPase [1]): 5.9
Inhibitory Activity log IC50 (Na^+,K^+ -ATPase [2]): 5.3
SBP (systolic blood pressure) [3]: 174 +/- 2.1 mm Hg
HR (heart rate) [3]: 340 +/- 10.2 beats/min.
antihypertensive action ([3]; statement in words): do not show antihypertensive action

C[C@]12CC[C@H](OCCN3CCCC3)C[C@H]1CC[C@@H]1[C@@H]2CC[C@]2(C)[C@@](OCCN3CCCC3)(c3ccccc3)CC[C@]12O [Comp. I-ai, 3β,17α-Bis(2-(1-pyrrolidinyl)ethoxy)-17β-phenyl-5β-androstan-14β-ol]
Binding ^3 H-Ouab. Displacement log IC50 (Na^+,K^+ -ATPase [1]): 5.0

Cc1ncc([C@@]2(O)CC[C@]3(O)[C@@H]4CC[C@@H]5C[C@@H](O)CC[C@]5(C)[C@H]4CC[C@]23C)n1C [Comp. I-be, 17β-(1,2-Dimethyl-5-imidazolyl)-5β-androstane-3β,14β,17α-triol]
Binding ^3 H-Ouab. Displacement log IC50 (Na^+,K^+ -ATPase [1]): 5.4

CN(C)c1ccc([C@@]2(O)CC[C@]3(O)[C@@H]4CC[C@@H]5C[C@@H](O)CC[C@]5(C)[C@H]4CC[C@]23C)cc1 [Comp. I-bf, 17β-(4-(N,N-Dimethylaminophenyl))-5β-androstane-3β,14β,17α-triol]
Binding ^3 H-Ouab. Displacement log IC50 (Na^+,K^+ -ATPase [1]): 5.7
Inhibitory Activity log IC50 (Na^+,K^+ -ATPase [2]): 4.6

C[C@]12CC[C@H](O)C[C@H]1CC[C@@H]1[C@@H]2CC[C@]2(C)[C@@](O)(c3cccnc3)CC[C@]12O [Comp. 1-bb, 17β-(3-Pyridyl)-5β-androstane-3β,14β,17α-triol]
Binding ^3 H-Ouab. Displacement log IC50 (Na^+,K^+ -ATPase [1]): 5.4
Inhibitory Activity log IC50 (Na^+,K^+ -ATPase [2]): 4.3
SBP (systolic blood pressure) [3]: 154 +/- 3.0 mm Hg
HR (heart rate) [3]: 339 +/- 6.8 beats/min.

C[C@]12CC[C@H](O)C[C@H]1CC[C@@H]1[C@@H]2CC[C@]2(C)[C@@](O)(c3ccccc3)CC[C@]12O [Comp. I-ac, 17β-Phenyl-5β-androstane-3β,14β,17α-triol]
Binding ^3 H-Ouab. Displacement log IC50 (Na^+,K^+ -ATPase [1]): 5.4
Inhibitory Activity log IC50 (Na^+,K^+ -ATPase [2]): 4.1
SBP (systolic blood pressure) [3]: 160 +/- 4.5 mm Hg
HR (heart rate) [3]: 331 +/- 8.5 beats/min.

C[C@]12CC[C@H](O)C[C@H]1CC[C@@H]1[C@@H]2CC[C@]2(C)[C@@](O)(c3ccsc3)CC[C@]12O [Comp. 1-ba, 17β-(3-Thienyl)-5β-androstane-3β,14β,17α-triol]
Binding ^3 H-Ouab. Displacement log IC50 (Na^+,K^+ -ATPase [1]): 5.7
Inhibitory Activity log IC50 (Na^+,K^+ -ATPase [2]): 4.5

C[C@]12CC[C@H](O)C[C@H]1CC[C@@H]1[C@@H]2CC[C@]2(C)[C@@](O)(c3ccc(O)cc3)CC[C@]12O [Comp. I-ay, 17β-(4-Hydroxyphenyl)-5β-androstane-3β,14β,17α-triol]
Binding ^3 H-Ouab. Displacement log IC50 (Na^+,K^+ -ATPase [1]): 5.6
Inhibitory Activity log IC50 (Na^+,K^+ -ATPase [2]): 4.5

CN(C)CCCO[C@H]1CC[C@@]2(C)[C@H](CC[C@@H]3[C@@H]2CC[C@]2(C)[C@@](O)(c4ccccc4)CC[C@]32O)C1 [Comp. I-ae, 3β-(3-Dimethylaminopropoxy)-17β-phenyl-5β-androstane-14β,17α-diol]
Binding ^3 H-Ouab. Displacement log IC50 (Na^+,K^+ -ATPase [1]): 5.9
Inhibitory Activity log IC50 (Na^+,K^+ -ATPase [2]): 4.7

C[C@]12CC[C@H](OCC(O)CO)C[C@H]1CC[C@@H]1[C@@H]2CC[C@]2(C)[C@@](O)(c3ccccc3)CC[C@]12O (stereo partly drawn) [Comp. I-ao, 3β-((2RS)-2,3-Dihydroxypropoxy)-17β-phenyl-5β-androstane-14β,17α-diol]
Binding ^3 H-Ouab. Displacement log IC50 (Na^+,K^+ -ATPase [1]): 5.5
Inhibitory Activity log IC50 (Na^+,K^+ -ATPase [2]): 4.2

COc1ccc([C@@]2(O)CC[C@]3(O)[C@@H]4CC[C@@H]5C[C@@H](O)CC[C@]5(C)[C@H]4CC[C@]23C)cc1 [Comp. I-au, 17β-(4-Methoxyphenyl)-5β-androstane-3β,14β,17α-triol]
Binding ^3 H-Ouab. Displacement log IC50 (Na^+,K^+ -ATPase [1]): 5.6
Inhibitory Activity log IC50 (Na^+,K^+ -ATPase [2]): 4.5
SBP (systolic blood pressure) [3]: 156 +/- 4.1 mm Hg
HR (heart rate) [3]: 335 +/- 10.5 beats/min.

C[C@]12CC[C@H](OCC(N)CN)C[C@H]1CC[C@@H]1[C@@H]2CC[C@]2(C)[C@@](O)(c3ccccc3)CC[C@]12O (stereo partly drawn) [Comp. I-ap, 3β-((2RS)-2,3-Diaminopropoxy)-17β-phenyl-5β-androstane-14β,17α-diol]
Binding ^3 H-Ouab. Displacement log IC50 (Na^+,K^+ -ATPase [1]): 5.8
Inhibitory Activity log IC50 (Na^+,K^+ -ATPase [2]): 4.6

C[C@]12CC[C@H](OCCO)C[C@H]1CC[C@@H]1[C@@H]2CC[C@]2(C)[C@@](O)(c3ccccc3)CC[C@]12O [Comp. I-ad, 3β-(2-Hydroxyethoxy)-17β-phenyl-5β-androstane-14β,17α-diol]
Binding ^3 H-Ouab. Displacement log IC50 (Na^+,K^+ -ATPase [1]): 5.2
Inhibitory Activity log IC50 (Na^+,K^+ -ATPase [2]): 4.0
